Results published in ChEMBL document CHEMBL3108702, “Purinergic receptor P2X₇: a novel target for anti-inflammatory therapy” (Bioorg Med Chem, 2014).

The compounds below were run against T1, P2X purinoceptor 7 (Homo sapiens, UniProt Q99572) (assay: Antagonist activity at P2X7 receptor (unknown origin)). Details: read-out: IC50.
T1 sequence (Q99572 whole entry): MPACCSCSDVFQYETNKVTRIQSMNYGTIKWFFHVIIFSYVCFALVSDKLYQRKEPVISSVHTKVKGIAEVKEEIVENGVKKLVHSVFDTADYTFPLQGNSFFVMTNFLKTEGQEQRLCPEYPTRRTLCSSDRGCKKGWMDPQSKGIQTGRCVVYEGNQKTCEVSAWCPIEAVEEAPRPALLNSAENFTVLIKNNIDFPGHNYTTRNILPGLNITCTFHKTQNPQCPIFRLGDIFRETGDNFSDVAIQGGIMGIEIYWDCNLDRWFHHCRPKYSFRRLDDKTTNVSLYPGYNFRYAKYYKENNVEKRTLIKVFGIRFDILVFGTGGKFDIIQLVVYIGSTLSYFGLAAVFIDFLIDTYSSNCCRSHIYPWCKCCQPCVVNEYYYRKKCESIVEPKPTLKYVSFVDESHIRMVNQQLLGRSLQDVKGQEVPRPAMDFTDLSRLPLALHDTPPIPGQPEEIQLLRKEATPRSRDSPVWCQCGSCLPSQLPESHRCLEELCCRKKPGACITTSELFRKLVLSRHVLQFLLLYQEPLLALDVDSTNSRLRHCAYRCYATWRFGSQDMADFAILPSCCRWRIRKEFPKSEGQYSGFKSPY

Point of comparison: `CN([C@@H](Cc1ccc(OS(=O)(=O)c2cccc3cnccc23)cc1)C(=O)N1CCN(c2ccccc2)CC1)S(=O)(=O)c1cccc2cnccc12`, IC50 94.4 nM. Against it:
- CN([C@@H](Cc1ccc(OS(=O)(=O)c2cccc3cnccc23)cc1)C(=O)N1CCN(Cc2ccccc2)CC1)S(=O)(=O)c1cccc2cnccc12 — within 1.5-fold, 65.3 nM

Same assay, conditions: read-out: pIC50 (converted)

Point of comparison: `O=C(NCC12CC3CC(C1)CC(CNC(=O)c1ccc(Cl)cc1Cl)(C3)C2)c1ccc(Cl)cc1Cl`, IC50 126 nM. Against it:
- Cc1cccc(-c2nnnn2Cc2cccnc2)c1C — 2-fold higher, 251 nM
- O=C(NCC12CC3CC(CC(C3)C1)C2)c1ccccc1Cl — 16-fold lower, 7.94 nM
- COc1cccc(-c2nnnn2Cc2cccnc2)c1OC — 32-fold higher, 3980 nM
- COc1ccc(Cl)c(NC(=O)CC23CC4CC(CC(C4)C2)C3)c1 — 2-fold lower, 63.1 nM
- CN(Cc1ccc(Cl)cc1)CC12CC3CC(CC(C3)C1)C2 — 32-fold higher, 3980 nM
- Cc1nn(-c2ccccc2)c(C)c1NC(=O)NCc1ccc(F)cc1Cl — higher, > 1000 nM
- COc1ccc(C)c(NC(=O)CC23CC4CC(CC(C4)C2)C3)c1 — 13-fold lower, 10 nM
- O=C(CC12CC3CC(CC(C3)C1)C2)Nc1ccc(Cl)cc1 — 4-fold higher, 501 nM
- O=C(NCC12CC3CC(CC(C3)C1)C2)c1ccc(Cl)cc1Cl — 3.2-fold higher, 398 nM
- COc1cccc(NC(=O)CC23CC4CC(CC(C4)C2)C3)c1C — 25-fold lower, 5.01 nM
- CN(CC12CC3CC(CC(C3)C1)C2)C(=O)c1ccc(Cl)cc1 — 32-fold higher, 3980 nM
- Clc1cccc(-n2ncnc2NCc2cccnc2)c1Cl — 14-fold lower, 9.12 nM
- CC(NC(=O)c1ccc(Cl)cc1)C12CC3CC(CC(C3)C1)C2 (stereo not drawn) — 3.2-fold higher, 398 nM
- O=C(CN1CC(=O)N(c2ccccc2)C1=O)NCc1ccc(F)cc1Cl — higher, > 1000 nM
- Cc1nn(-c2ccccc2)c(C)c1Cc1nnc(Cc2ccc(Cl)cc2Cl)o1 — higher, > 1000 nM
